# Assay results taken from patent US9340577B2, “HLA binding motifs and peptides and their uses” (priority 1992, dated 2016).
# No end group written: not given here.
# What was measured:
# Experiment in all cases: biochemical
# Type in all cases: binding
# HLA-A3.2 (A*0301) = HLA-A3.2 (A*0301) (Homo sapiens, UniProt P04439)
# HLA-A11 (A*1101) = HLA-A11 (A*1101) (Homo sapiens, UniProt P04439, A114D/D185E/E176A/F33Y/L180Q/S129P/T187R)
# A31 (A*3101) = A31 (A*3101) (Homo sapiens, UniProt P04439, A270S/D185E/E176V/E277Q/F33T/G231S/G80R/H175R/I121M/I218V/I322F/K168Q/L300P/L318F/M331R/P217A/Q94H/R138Q/T323A/T345S/T97I/V358M)
# A*6801 = A*6801 (Homo sapiens, UniProt P04439, A269V/D185E/E176V/E277Q/E87N/F33Y/G231S/I121M/I166T/I218V/L180W/L300P/L318F/N151K/P208A/P217A/Q86R/R169H/T345S)
# A*3301 = A*3301 (Homo sapiens, UniProt P04439, A270S/D185E/E176V/E277Q/E87N/F33T/G231S/H175R/I121M/I218V/I322F/K168Q/K210R/L300P/L318F/M331R/P217A/Q86R/Q94H/R138Q/T323A/T345S/T97I/V358M/Y195H)
Compound,IC50 (HLA-A3.2 (A*0301)) [nM],IC50 (HLA-A11 (A*1101)) [nM],IC50 (A31 (A*3101)) [nM],IC50 (A*6801) [nM],IC50 (A*3301) [nM]
LVKMFCQLAK [Peptide 1556.50],1200,189,3340,221,–
VVYRDSIPH [Peptide 78.0275],401,178,> 20000,> 20000,> 20000
VTVKVGGQLR [Peptide 1516.06],8930,199,503,96,12700
KTTPVVHLK [Peptide 1589.37],28,22,28,33,> 20000
VTVYYGVPIWK [Peptide 1525.02],18,2.3,150,5,1350
SFFSRTWCR [Peptide 1587.42],2380,155,2.2,28,3.5
SVICFVNSK [Peptide 1587.15],109,3.5,1910,8.6,2850
TVNEYNTHK [Peptide 1589.36],83,20,4120,49,2730
LLYGPANTGK [Peptide 1587.56],14,8.8,6300,44,14500
VTIRVGGQLR [Peptide 1516.07],3260,17,32,28,9430
RILSTYLGR [Peptide 9017.0072],7.5,7.2,1.6,457,–
SQWIKYRCDR [Peptide 88.0136],19100,11000,418,> 20000,2710
HSRIGILRQR [Peptide 9017.0242],637,6910,9.8,253,418
SFMELVRPFK [Peptide 88.0163],2020,199,7.7,1390,3.3
VSIEWRQRR [Peptide 9017.0089],1350,13,1.5,41,7.1
TTSAELPK [Peptide 1556.23],19400,221,> 20000,1400,> 20000
GVLILALLR [Peptide 88.0338],2880,56,2300,943,3890
VTIRVAGQVK [Peptide 1516.04],53,21,4600,52,> 20000
LQQLLFIHFR [Peptide 9017.0241],2490,58,1.3,81,–
FLGAFKKFLK [Peptide 88.0169],3.3,9.6,11,275,–
GVEFISFLR [Peptide 1587.55],> 20000,440,124,48,–
NTMDYTNWK [Peptide 88.0425],1600,19,> 20000,13,–
SQWIRFRCSK [Peptide 88.0147],415,130,373,11800,–
MLIRYTCGK [Peptide 88.0377],34,14,1220,15,–

Compound,IC50 (HLA-A3.2 (A*0301)) [nM],IC50 (HLA-A11 (A*1101)) [nM],IC50 (A31 (A*3101)) [nM],IC50 (A*6801) [nM],IC50 (A*3301) [nM]
FTAFLGAFKK [Peptide 88.0168],1900,25,> 20000,20,–
ITVYYGVPVWR [Peptide 1525.06],831,76,13,5.4,–
MVIEPPKLR [Peptide 88.0360],> 20000,271,729,13,–
AAFDLSFFLK [Peptide 9017.0189],9,2.3,130,1.9,–
ETNEALELK [Peptide 1556.68],16800,93,> 20000,1440,–
RVHSSHLK [Peptide 1556.72],144,13,483,1630,–
GVMCRHYKR [Peptide 88.0388],2890,80,37,93,–
LLLIRFRCSK [Peptide 88.0164],205,6980,–,732,> 20000
QLVTQLMPK [Peptide 9012.0211],88,79,> 20000,2260,–
AQVLHVLKRK [Peptide 88.0141],161,104,–,15800,> 20000
IVGWPAVRER [Peptide 9017.0186],630,1170,110,81,–
LTALITPKK [Peptide 9017.0101],41,4.2,4500,6.5,–
AFNSSHKGR [Peptide 88.0394],> 20000,> 20000,55,> 20000,–
CTELKLVYR [Peptide 78.0334],> 20000,> 20000,64,1330,–
GVIVMMLIR [Peptide 88.0376],2380,434,–,2770,214
ALKGLAQSK [Peptide 88.0416],65,1660,–,> 20000,> 20000
CC[C@H](C)[C@H](N)C(=O)N[C@@H](CO)C(=O)N[C@@H](Cc1ccccc1)C(=O)N[C@@H](C)C(=O)NCC(=O)N[C@H](C(=O)N[C@H](C(=O)N[C@H](C(=O)N[C@@H](CCCCN)C(=O)O)[C@@H](C)O)C(C)C)[C@@H](C)CC [Peptide 1589.17],33,9.5,–,31,4370
VTYHSETQR [Peptide 1589.10],29,22,66,32,–
KIDRLIDRIR [Peptide 9017.0249],> 20000,> 20000,–,> 20000,> 20000
RTHSSHLKSKK [Peptide 1556.76],59,9.8,–,1360,10700
GVSIEWRLRR [Peptide 9017.0220],7780,468,189,4420,–
RTLTLLSVTK [Peptide 1556.13],23,15,–,219,6760
WTIVYIEYRK [Peptide 9017.0243],4890,37,1350,0.94,–
